Our source for the CB1/CB2 ratio, Ki and melting point values is patent US7524867B2, “Tetrasubstituted imidazole derivatives as cannabinoid CB1 receptor modulators with a high CB1/CB2 receptor subtype selectivity” (Solvay Pharmaceuticals, B.V., priority 2004, dated 2009).

Where two headings read alike, the source gives them in different places. Bounds are passed on as bounds.

In general, melting point refers to the temperature, or range, at which the solid turns liquid.

For series [1], the target named is T1, human cannabinoid CB1 receptor (Homo sapiens, UniProt P21554).
T1 construct: expressed in transfected cells; host or cells: Chinese hamster ovary (CHO) cells, stably transfected; membrane preparation
Kind of series: In vitro affinity for cannabinoid-CB1 receptors ([3H]CP-55,940 radioligand binding, CHO cell membranes). To be noted: for CB1/CB2 ratio: CB1/CB2 receptor subtype selectivity (affinity ratio; numerically CB2 nM value divided by CB1 nM value). On the procedure: In Vitro Affinity for Cannabinoid-CB1 Receptors
After incubation of a freshly prepared cell membrane preparation with the [^3H]-ligand, with or without addition of compounds of the invention, separation of bound and free ligand is performed by filtration over glassfiber filters. Radioactivity on the filter is measured by liquid scintillation counting.
The affinity of the compounds of the invention for CB1 receptors was determined as described above. […] Pharmacokinetic, pharmacodynamic, and other considerations may alter the dose actually administered to a higher or lower value. The dosage expediently administered is 0.001-1000 mg/kg, preferably 0.1-100 mg/kg of patient's bodyweight.

Series [2] deals with T2, human cannabinoid CB2 receptor (Homo sapiens, UniProt P34972).
T2 construct: expressed in transfected cells; host or cells: Chinese hamster ovary (CHO) cells, stably transfected; membrane preparation
Description: In vitro affinity for cannabinoid-CB2 receptors ([3H]CP-55,940 radioligand binding, CHO cell membranes). As to conditions: membranes of CHO cells stably transfected with human CB2, mean of at least three independent experiments. On the procedure: In Vitro Affinity for Cannabinoid-CB2 Receptors
The affinity of the compounds of the invention for cannabinoid CB2 receptors can be determined using membrane preparations of Chinese hamster ovary (CHO) cells in which the human cannabinoid CB2 receptor is stably transfected in conjunction with [^3H]CP-55,940 as radioligand. After incubation of a freshly prepared cell membrane preparation with the [^3H]-ligand, with or without addition of compounds of the invention, separation of bound and free ligand is performed by filtration over glassfiber filters. Radioactivity on the filter is measured by liquid scintillation counting.

T1 sequence (P21554 whole entry): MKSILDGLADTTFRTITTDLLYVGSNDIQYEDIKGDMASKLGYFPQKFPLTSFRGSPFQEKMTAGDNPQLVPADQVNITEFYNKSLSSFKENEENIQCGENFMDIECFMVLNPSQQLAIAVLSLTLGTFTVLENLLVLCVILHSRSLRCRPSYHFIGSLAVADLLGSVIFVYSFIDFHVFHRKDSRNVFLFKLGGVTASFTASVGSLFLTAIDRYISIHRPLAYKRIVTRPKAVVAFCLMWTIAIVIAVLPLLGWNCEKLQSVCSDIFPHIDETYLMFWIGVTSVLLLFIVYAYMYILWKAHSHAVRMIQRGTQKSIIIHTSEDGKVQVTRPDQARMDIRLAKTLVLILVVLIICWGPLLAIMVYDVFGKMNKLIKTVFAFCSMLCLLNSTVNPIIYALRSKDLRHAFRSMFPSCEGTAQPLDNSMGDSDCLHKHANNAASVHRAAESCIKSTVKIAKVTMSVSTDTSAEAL
T2 sequence (P34972 whole entry): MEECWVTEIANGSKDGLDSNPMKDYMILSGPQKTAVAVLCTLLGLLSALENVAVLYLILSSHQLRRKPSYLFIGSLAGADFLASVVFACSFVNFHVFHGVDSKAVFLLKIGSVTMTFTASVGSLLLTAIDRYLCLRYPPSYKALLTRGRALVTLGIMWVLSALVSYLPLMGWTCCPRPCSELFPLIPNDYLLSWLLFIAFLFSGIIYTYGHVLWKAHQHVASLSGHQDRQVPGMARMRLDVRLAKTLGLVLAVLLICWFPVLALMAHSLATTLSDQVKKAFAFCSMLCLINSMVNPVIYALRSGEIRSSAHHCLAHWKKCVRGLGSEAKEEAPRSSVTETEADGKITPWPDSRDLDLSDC

As for `CSc1c(C(=O)NN2CCCCCC2)nc(-c2ccc(Cl)cc2Cl)n1-c1ccc(Cl)cc1` [compound 10, 1-(4-chlorophenyl)-2-(2,4-dichlorophenyl)-5-methylsulfanyl-N-(azepan-1-yl)-1H-imidazole-4-carboxamide], in series [1], the CB1/CB2 ratio is given as above 142. Further, the Ki in series [1] (receptor affinity, membranes of CHO cells stably transfected with human CB1, [3H]CP-55,940, mean of at least three independent experiments, read-out: CB1) was 7 nM; in series [2], above 1000 nM.
Compound `CSc1c(C(=O)NN2CCCCC2)nc(-c2ccccc2Cl)n1-c1ccc(Cl)cc1` came in with a melting point of 192 to 193 °C.
In the case of `CS(=O)(=O)c1c(C(=O)NN2CCCCC2)nc(-c2ccc(Cl)cc2Cl)n1-c1ccc(Cl)cc1` [compound 1, 1-(4-Chlorophenyl)-2-(2,4-dichlorophenyl)-5-methylsulfonyl-N-(piperidin-1-yl)-1H-imidazole-4-carboxamide], in series [1], the Ki is 12 nM and the CB1/CB2 ratio was 638. This compound also registered a Ki in series [2] of 7650 nM.
As to `CSc1c(C(=O)NN2CCCCC2)nc(-c2ccc(Cl)cc2Cl)n1-c1ccc(Cl)cc1` [compound 6, 1-(4-Chlorophenyl)-2-(2,4-dichlorophenyl)-5-methylsulfanyl-N-(piperdin-1-yl)-1H-imidazole-4-carboxamide], the CB1/CB2 ratio in series [1] came out at 171. In series [2], this compound registered a Ki of 2060 nM.
For the compound `CSc1c(C(=O)NN2CCCC2)nc(-c2ccc(Cl)cc2Cl)n1-c1ccc(Cl)cc1` [compound 9, 1-(4-chlorophenyl)-2-(2,4-dichlorophenyl)-5-methylsulfanyl-N-(pyrrolidin-1-yl)-1H-imidazole-4-carboxamide], the Ki was 5 nM in series [1] and above 1000 nM in series [2]. The CB1/CB2 ratio in series [1] is above 200.
